In the experiment the test system is P388 leukemia ip, CD2F1 mice, survival T/C. In words: NCI In Vivo Anticancer Drug Screen. Data for tumor model P388 Leukemia (intraperitoneal) in CD2F1 (CDF1) mice. As to conditions: endpoint: median survival time, higher = longer survival. A digest of the protocol:
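Mice carrying the transplanted tumor received test compound or vehicle. Survival was recorded in each group, and the value is the treated-group measurement divided by that of the vehicle-treated control group.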

Where [1] appears, read: dose: 50.0 mg/kg/injection, schedule: Q01DX009 (ip), vehicle: Klucel (hydroxypropylcellulose) (HPC).
[2] abbreviates: dose: 100.0 mg/kg/injection, schedule: Q01DX009 (ip), vehicle: Klucel (hydroxypropylcellulose) (HPC).
Where [3] appears, read: dose: 200.0 mg/kg/injection, schedule: Q01DX009 (ip), vehicle: Klucel (hydroxypropylcellulose) (HPC).
Where [4] appears, read: dose: 36.0 mg/kg/injection, schedule: Q01DX005 (ip), vehicle: Klucel (hydroxypropylcellulose) (HPC).
The mark [5] stands for this setting: dose: 50.0 mg/kg/injection, schedule: Q01DX005 (ip), vehicle: saline with Tween-80.
Where [6] appears, read: dose: 100.0 mg/kg/injection, schedule: Q01DX005 (ip), vehicle: saline with Tween-80.
Setting [7] is: dose: 200.0 mg/kg/injection, schedule: Q01DX005 (ip), vehicle: saline with Tween-80.
Setting [8] is: dose: 25.0 mg/kg/injection, schedule: Q01DX005 (ip), vehicle: Klucel (hydroxypropylcellulose) (HPC).
Setting [9] is: dose: 50.0 mg/kg/injection, schedule: Q01DX005 (ip), vehicle: Klucel (hydroxypropylcellulose) (HPC).
Where [10] appears, read: dose: 100.0 mg/kg/injection, schedule: Q01DX005 (ip), vehicle: Klucel (hydroxypropylcellulose) (HPC).
[11] abbreviates: dose: 200.0 mg/kg/injection, schedule: Q01DX005 (ip), vehicle: Klucel (hydroxypropylcellulose) (HPC).
[12] abbreviates: dose: 12.5 mg/kg/injection, schedule: Q01DX009 (ip), vehicle: Klucel (hydroxypropylcellulose) (HPC).
The mark [13] stands for this setting: dose: 25.0 mg/kg/injection, schedule: Q01DX009 (ip), vehicle: Klucel (hydroxypropylcellulose) (HPC).

SMILES strings stand for the structures. Where “and” joins values, the source holds several entries; their conditions need not be identical. Identical values can stand only once. Inconclusive results and toxic doses are left out.

As to `ClCCN(CCCl)c1ccc2c(c1)Cc1cc(Br)ccc1-2`, the T/C was 107 % of control under setting [1]; 110 % of control under setting [2]; 106 % of control under setting [3]; 110 % of control (dose: 400.0 mg/kg/injection, schedule: Q01DX009 (ip), vehicle: Klucel (hydroxypropylcellulose) (HPC)).

Turning to `O=C(OCc1ccccc1)N1Cc2cc3ccccc3nc2C1`, the T/C reads like this: (dose: 100.0 mg/kg/injection, schedule: Q04DX003 (ip), vehicle: saline with Tween-80) 103 % of control; (dose: 200.0 mg/kg/injection, schedule: Q04DX003 (ip), vehicle: saline with Tween-80) 103 % of control; (dose: 400.0 mg/kg/injection, schedule: Q04DX003 (ip), vehicle: saline with Tween-80) 101 % of control.

Take `CCN(CC)C1CC(=O)C2(C)C3CCC4(C)C(C(C)C5CC(C)=C(CO)C(=O)O5)CCC4C3CC3OC32C1O` (centres undefined): the T/C was 98 % of control (dose: 4.5 mg/kg/injection, schedule: Q01DX005 (ip), vehicle: Klucel (hydroxypropylcellulose) (HPC)); 93 % of control (dose: 9.0 mg/kg/injection, schedule: Q01DX005 (ip), vehicle: Klucel (hydroxypropylcellulose) (HPC)); 100 % of control (dose: 18.0 mg/kg/injection, schedule: Q01DX005 (ip), vehicle: Klucel (hydroxypropylcellulose) (HPC)); 98 % of control under setting [4]; 100 % of control (dose: 72.0 mg/kg/injection, schedule: Q01DX005 (ip), vehicle: Klucel (hydroxypropylcellulose) (HPC)).

Turning to `CCCc1c(OC)c(OC)c2c(c1C(C)=O)OCO2`, the T/C under setting [5] is 100 % of control, the T/C under setting [6] was 100 % of control and the T/C under setting [7] was 104 % of control.

As for `N#CC1c2ccccc2C=CN1C(=O)CCCl` (centres undefined), the T/C reads like this: under setting [1], 106 % of control; under setting [2], 108 % of control; under setting [3], 108 % of control.

Take `Cc1ccc(O)c(C(=NCCCCN=C(c2ccccc2)c2cc(C)ccc2O)c2ccccc2)c1.[Ni]`: the T/C was 97 % of control under setting [8], 97 % of control under setting [9], 103 % of control under setting [10] and 94 % of control under setting [11].

As to `O=C1CSC(=S)N1c1ccco1`, the T/C is, setting by setting: (dose: 100.0 mg/kg/injection, schedule: Q01DX009 (ip), vehicle: saline with Tween-80) 100 % of control; (dose: 200.0 mg/kg/injection, schedule: Q01DX009 (ip), vehicle: saline with Tween-80) 100 % of control.

As to `[O-][n+]1onc2ccccc21`, the T/C is 103 % of control (dose: 25.0 mg/kg/injection, schedule: Q04DX002 (ip), vehicle: saline with Tween-80); 109 % of control (dose: 50.0 mg/kg/injection, schedule: Q04DX002 (ip), vehicle: saline with Tween-80); 90 % of control (dose: 100.0 mg/kg/injection, schedule: Q04DX002 (ip), vehicle: saline with Tween-80).

Take `O=C(Nc1ccc(CCC2=NCCCN2)cc1)c1ccc(C(=O)Nc2ccc(CCC3=NCCCN3)cc2)cc1`: the T/C (dose: 25.0 mg/kg/injection, schedule: Q01DX005 (ip), vehicle: saline with Tween-80) was 115 % of control and the T/C under setting [5] is 113 % of control.

As to `COc1ccc(/C=C/C(=O)c2cc(O)cc(OC)c2)cc1`, the T/C reads like this: (dose: 6.25 mg/kg/injection, schedule: Q01DX009 (ip), vehicle: Klucel (hydroxypropylcellulose) (HPC)) 101 % of control; under setting [12], 96 % of control; under setting [13], 101 % of control; under setting [1], 110 % of control.

With `Clc1ccc2ncnc(Nc3ccccc3)c2c1`, the T/C reads like this: under setting [1], 91 % of control; under setting [2], 100 % of control; under setting [3], 86 % of control.

Take `COc1cc2cnc(-c3ccccc3)c(O)c2cc1OC`: the T/C runs as follows: (dose: 100.0 mg/kg/injection, schedule: Q04DX003 (ip), vehicle: suspension in saline) 98 % of control; (dose: 200.0 mg/kg/injection, schedule: Q04DX003 (ip), vehicle: suspension in saline) 94 % of control; (dose: 400.0 mg/kg/injection, schedule: Q04DX003 (ip), vehicle: suspension in saline) 94 % of control.

As to `COc1cccc2c1C(=O)c1c(O)c3c(c(O)c1C2=O)CC(O)(C(C)=O)CC3OC1CC([N+](C)(C)C)C(O)C(C)O1` (centres undefined), the T/C (dose: 1.56 mg/kg/injection, schedule: Q01DX009 (ip), vehicle: water) was 101 % of control; the T/C (dose: 3.12 mg/kg/injection, schedule: Q01DX009 (ip), vehicle: water) was 90 % of control; the T/C (dose: 3.13 mg/kg/injection, schedule: Q01DX009 (ip), vehicle: water) is 113 % of control; the T/C (dose: 6.25 mg/kg/injection, schedule: Q01DX009 (ip), vehicle: water) is 118 % of control; the T/C (dose: 12.5 mg/kg/injection, schedule: Q01DX009 (ip), vehicle: water) is 110 % of control and 112 % of control; the T/C (dose: 25.0 mg/kg/injection, schedule: Q01DX009 (ip), vehicle: water) was 111 % of control and 120 % of control.

`CCOC(=O)c1nn(C)c(=O)[nH]c1=O`: the T/C reads like this: under setting [5], 99 % of control; under setting [6], 100 % of control; under setting [7], 100 % of control.

`CCN(CC)CCSCCCN=c1c2ccc(Cl)cc2n(O)c2ccc(OC)nc12`: the T/C is 115 % of control (dose: 50.0 mg/kg/injection, schedule: Q01DX009 (ip), vehicle: saline + alcohol) and 112 % of control (dose: 100.0 mg/kg/injection, schedule: Q01DX009 (ip), vehicle: saline + alcohol).

For `Cc1cn(CC2C=CC(CS[As](C)C)O2)c(=O)[nH]c1=O` (centres undefined), the T/C runs as follows: (dose: 12.5 mg/kg/injection, schedule: Q01DX009 (ip), vehicle: distilled water + Tween-80) 99 % of control; (dose: 25.0 mg/kg/injection, schedule: Q01DX009 (ip), vehicle: distilled water + Tween-80) 108 % of control; (dose: 50.0 mg/kg/injection, schedule: Q01DX009 (ip), vehicle: distilled water + Tween-80) 101 % of control; (dose: 100.0 mg/kg/injection, schedule: Q01DX009 (ip), vehicle: distilled water + Tween-80) 119 % of control.

Turning to `CSC1=NS(=O)(=O)c2ccccc21`, the T/C was 96 % of control under setting [5], 96 % of control under setting [6] and 103 % of control under setting [7].

As to `CN1CCN(N=Nc2ccccc2Cl)CC1`, the T/C (dose: 12.5 mg/kg/injection, schedule: Q01DX009 (ip), vehicle: saline) is 99 % of control; the T/C (dose: 25.0 mg/kg/injection, schedule: Q01DX009 (ip), vehicle: saline) was 111 % of control; the T/C (dose: 50.0 mg/kg/injection, schedule: Q01DX009 (ip), vehicle: saline) was 103 % of control and 98 % of control.

`CCn1c(=O)c2[nH]c(Br)nc2n(CC)c1=O`: the T/C by setting is: under setting [12], 124 % of control; (dose: 16.0 mg/kg/injection, schedule: Q01DX009 (ip), vehicle: Klucel (hydroxypropylcellulose) (HPC)) 106 % of control; under setting [13], 103 % of control and 97 % of control; (dose: 32.0 mg/kg/injection, schedule: Q01DX009 (ip), vehicle: Klucel (hydroxypropylcellulose) (HPC)) 104 % of control; under setting [1], 105 % of control and 95 % of control; (dose: 64.0 mg/kg/injection, schedule: Q01DX009 (ip), vehicle: Klucel (hydroxypropylcellulose) (HPC)) 114 % of control. Also, the T/C under setting [2] is 98 % of control and 103 % of control.

Turning to `[N-]=[N+]=CC(=O)CCC(NC(=O)OCc1ccccc1)C(=O)OCc1ccccc1` (centres undefined), the T/C (dose: 0.78 mg/kg/injection, schedule: Q01DX005 (ip), vehicle: Klucel (hydroxypropylcellulose) (HPC)) is 102 % of control; the T/C (dose: 1.56 mg/kg/injection, schedule: Q01DX005 (ip), vehicle: Klucel (hydroxypropylcellulose) (HPC)) is 110 % of control; the T/C (dose: 3.13 mg/kg/injection, schedule: Q01DX005 (ip), vehicle: Klucel (hydroxypropylcellulose) (HPC)) was 101 % of control; the T/C (dose: 6.25 mg/kg/injection, schedule: Q01DX005 (ip), vehicle: Klucel (hydroxypropylcellulose) (HPC)) is 104 % of control; the T/C (dose: 12.5 mg/kg/injection, schedule: Q01DX005 (ip), vehicle: Klucel (hydroxypropylcellulose) (HPC)) was 99 % of control and 101 % of control and 113 % of control; the T/C under setting [8] was 110 % of control and 120 % of control. The T/C reads like this: under setting [4], 107 % of control; (dose: 60.0 mg/kg/injection, schedule: Q01DX005 (ip), vehicle: Klucel (hydroxypropylcellulose) (HPC)) 120 % of control; (dose: 278.0 mg/kg/injection, schedule: Q01DX005 (ip), vehicle: Klucel (hydroxypropylcellulose) (HPC)) 152 % of control.

Take `c1ccc(CSCCSCc2ccccn2)nc1`: the T/C is 95 % of control under setting [9], 109 % of control under setting [10] and 103 % of control under setting [11].

(Values after PubChem BioAssay AID330 (DTP/NCI, 2004).)
